Experimental findings from patent US4758577A, “4-(5H-dibenzo[a,d]cyclohepten-5-yl)piperidine compounds for treating cardiovascular disorders” (Merck & Co., Inc., priority 1984, dated 1988) are described below.

For orientation: inhibition means the percentage by which the read-out fell short of the control.

For this assay, the system named is vascular smooth muscle. The experiment in a line: inhibition of calcium induced contraction of tracheal smooth muscle or vascular tissue (segments of vascular smooth muscle in a tissue bath, depolarized, 0.1 mM calcium chloride re-added). The class given is cell-based, male Sprague-Dawley rats. The conditions noted are these: Rattus norvegicus; 10^-7 M; second contraction vs initial contraction. The protocol:
The property may be observed in a test in which segments of vascular smooth muscle obtained from male Sprague-Dawley rats are suspended in physiological salt solution in a tissue bath instrumented for recording contractions. After the tissue has been equilibrated, washed in calcium-free physiological salt solution and depolarized, 0.1 mM calcium chloride is re-added to induce contraction. After the contraction has reached a plateau, tissues are washed and a test compound or vehicle is added to determine the effect on a second contraction achieved by the above cyclic protocol. From measuring the initial contraction as well as the second contraction in the presence of the first compound, the extent of inhibition may be calculated.

For the compound `COc1cc(C=CCN2CCC(C3c4ccccc4C=Cc4ccccc43)CC2)cc(OC)c1OC` [4-(5H-Dibenzo[a,d]cyclohepten-5-yl)-1-(3-(3,4,5-trimethoxyphenyl)prop-2-en-1-yl)piperidine], the inhibition at 0.1 µM was determined as 68%.

`CN(C)c1ccc(CN2CCC(C3c4ccccc4C=Cc4ccccc43)CC2)cc1` [4-(5H-Dibenzo[a,d]cyclohepten-5-yl)-1-(4-dimethylaminobenzyl)piperidine]: the inhibition at 0.1 µM stood at 69%. To `C(=Cc1ccccc1)CN1CCC(C2c3ccccc3C=Cc3ccccc32)CC1` [4-(5H-Dibenzo[a,d]cyclohepten-5-yl)-1-cinnamylpiperidine] belongs 70%.
